According to patent US9200008B2 (ASKA PHARMACEUTICAL CO., LTD., priority 2010, dated 2015):

Test system: Human prostate cancer cell lines (PC-3 cells)
Assay: Measurement of cell death-inducing activity (Test Example 1)
Format: cell-based
Conditions: PC-3, 48 h, 48 hours after addition, tested at 10, 1, 0.1, 0.025 and 0.00625 μmol/L, qualitative evaluation of 10 fields, read-out: Concentration showing the cell death-inducing activity (cell death-inducing rate not less than 40%)
Method: The cell death-inducing activity of the compound represented by the formula (1) or the salt thereof was measured as follows.
Human prostate cancer cell lines (PC-3 cells) were seeded to 6-well plates at 1×10^5 cells/2 mL/well, and cultured in the presence of 5% CO2 at 37° C. for 48 hours. Thereafter, each compound was added thereto so as to provide 10, 1, 0.1, 0.025 and 0.00625 μmol/L. As a control, DMSO was added. After the addition, the cells were continuously cultured for 48 hours. […] When the cell death-inducing rate was not less than 40%, the compound was judged to have the cell death-inducing activity.

For CCc1nc(-c2ccc(Cl)cc2C)sc1NC(=O)OCc1ccc2c(c1)nc(C)n2C [Example 9-376], the minimal effective concentration was 0.1 µM.
With COc1ccc(/C=N/NC(=O)c2sc(C)nc2C)cc1O [Example 23-132] the minimal effective concentration was 10 µM.
Work on COc1ccc(/C=N/NC(=O)c2sc(-c3cccc(F)c3)nc2C)cc1O [Example 23-72] yielded a minimal effective concentration of 1 µM.
In the case of COc1cc(Cl)ccc1-c1nc(C)c(NC(=O)OCc2ccc3c(c2)ncn3C(C)C)s1 [Example 9-71], the minimal effective concentration is reported as 0.025 µM.
Compound COc1ccc(/C=N/NC(=O)c2oc(-c3ccccc3OC)nc2C)cc1C [Example 26-3] has a minimal effective concentration of 10 µM.
Compound CCn1nc(-c2ccc(Cl)cc2OC)cc1NC(=O)OCc1ccc2c(c1)nc1n2CCOC1 [Example 9-248] has a minimal effective concentration of 0.025 µM.
In the case of Cc1ccc(-c2nc(C)c(NC(=O)OCc3ccc4c(c3)nc3n4C(C)CCC3)s2)c(C)c1 (stereo not drawn) [Example 9-118], the minimal effective concentration is reported as 10 µM.
In the case of COc1cc(C)ccc1-c1nc(C)c(NC(=O)OCc2ccc3c(c2)nc2n3CCCC2)s1 [Example 9-112], the minimal effective concentration is reported as 0.1 µM.
COc1cc(C)ccc1-c1cc(NC(=O)OCc2ccc3c(cnn3C)c2)n(C)n1 [Example 9-283] gave a minimal effective concentration of 0.025 µM.
Work on Cc1cc(/C=N/NC(=O)c2cc(-c3ccccn3)ns2)cc(C)c1O [Example 27-12] yielded a minimal effective concentration of 1 µM.
COc1cc(F)ccc1-c1nc(C)c(NC(=O)OCc2ccc3c(c2)ncn3C(C)C)s1 [Example 9-70] gave a minimal effective concentration of 0.1 µM.
Compound COc1cc(Cl)ccc1-c1nc(C)c(NC(=O)OCc2ccc3c(c2)nc2n3CCC2)s1 [Example 9-103] has a minimal effective concentration of 0.00625 µM.
COc1ccc(/C=N/NC(=O)c2cc(-c3ccc(Cl)cc3OC)n[nH]2)cc1O [Example 22-8] gave a minimal effective concentration of 1 µM.
Work on Cc1ccc(C)c(-c2nc(C)c(C(=O)N/N=C/c3cc(C)c(O)c(C)c3)s2)c1 [Example 23-127] yielded a minimal effective concentration of 1 µM.
With COc1cc(Cl)ccc1-c1nc(C)c(NC(=O)OCc2ccc3c(c2)nc(C)n3C)s1 [Example 9-76] the minimal effective concentration was 0.025 µM.
CCc1nc(-c2ccc(F)cc2C)sc1NC(=O)OCc1ccc2c(c1)ncn2CC [Example 9-167] was tested, and the minimal effective concentration was 0.025 µM.
COc1ccccc1-c1cc(C(=O)N/N=C/c2ccc3c(c2)nc2n3CCOC2)sn1 [Example 49-4, 3-(2-Methoxyphenyl)isothiazole-5-carboxylic acid[1-(3,4-dihydro-1H-2-oxa-4a,9-diazafluoren-7-yl)methylidene]hydrazide] was tested, and the minimal effective concentration was 10 µM.
With CCc1nc(-c2ccc(F)cc2C)sc1NC(=O)OCc1ccc2nn(C)cc2c1 [Example 9-363] the minimal effective concentration was 1 µM.
Work on COCCn1cnc2cc(NC(=O)OCc3cc(-c4ccc(Cl)cc4OC)nn3C)ccc21 [Example 13-94] yielded a minimal effective concentration of 1 µM.
With CCn1cnc2cc(COC(=O)Nc3sc(-c4ccc(C)cc4C)nc3C)ccc21 [Example 9-62] the minimal effective concentration was 0.00625 µM.
In the case of Cc1nc(-c2cccc(F)c2)sc1NC(=O)OCc1ccc2c(c1)ncn2C [Example 9-44], the minimal effective concentration is reported as 1 µM.
Cc1cccnc1-c1cc(C(=O)N/N=C/c2cc(C)c(O)c(C)c2)sn1 [Example 27-13] was tested, and the minimal effective concentration was 0.1 µM.
Compound COc1cc(C)ccc1-c1nc(C)c(NC(=O)OCc2ccc3c(c2)nc(C)n3C)s1 [Example 9-77] has a minimal effective concentration of 0.025 µM.
With CCn1nc(-c2ccc(Cl)cc2OC)cc1NC(=O)OCc1ccc2nn(C)cc2c1 [Example 9-292] the minimal effective concentration was 0.025 µM.
In the case of Cc1cccc(-c2nc(C)c(C(=O)N/N=C/c3cc(C)c(O)c(C)c3)s2)c1C [Example 23-23], the minimal effective concentration is reported as 1 µM.
With CCc1nc(-c2ccc(C)cc2C)sc1NC(=O)OCc1ccc2c(c1)nc1n2CCC1 [Example 9-350] the minimal effective concentration was 0.1 µM.
For CCc1nc(-c2ccc(Cl)cc2OC)sc1NC(=O)OCc1ccc2c(c1)nc1n2CCCC1 [Example 9-172], the minimal effective concentration was 0.025 µM.
Compound CCc1ccccc1-c1nc(C)c(NC(=O)OCc2ccc3c(c2)ncn3CC)s1 [Example 9-56] has a minimal effective concentration of 0.025 µM.
CCN(Cc1ccc(OC)cc1)NC(=O)c1cc(-c2ccc(Cl)cc2OC)ns1 [Example 19-2, 3-(4-Chloro-2-methoxyphenyl)isothiazole-5-carboxylic acid N′-(4-methoxybenzyl)-N′-ethyl hydrazide] was tested, and the minimal effective concentration was 10 µM.
With Cc1nc(-c2ccc(F)cc2Cl)sc1NC(=O)OCc1ccc2c(c1)nc(C)n2C [Example 9-79] the minimal effective concentration was 0.1 µM.
COc1cc(Cl)ccc1-c1nc(C)c(C(=O)N/N=C/c2ccc(O)c(O)c2)s1 [Example 23-77] was tested, and the minimal effective concentration was 1 µM.
CCn1cnc2cc(NC(=O)OCc3cc(-c4ccc(Cl)cc4OC)nn3C)ccc21 [Example 13-86] gave a minimal effective concentration of 0.00625 µM.
COc1ccc(-c2nc(C)c(NC(=O)OCc3ccc4nn(C)cc4c3)s2)c(OC)c1 [Example 9-146] showed a minimal effective concentration of 0.1 µM.
COc1cc(C)ccc1-c1cc(COC(=O)Nc2ccc3c(c2)ncn3C)n(C)n1 [Example 13-88] was tested, and the minimal effective concentration was 0.00625 µM.
COc1ccccc1-c1ncc(COC(=O)Nc2ccc3c(c2)ncn3C)s1 [Example 13-66] showed a minimal effective concentration of 10 µM.
Compound COc1ccccc1-c1cc(NC(=O)OCc2ccc3nn(C)cc3c2)n(C)n1 [Example 9-288] has a minimal effective concentration of 1 µM.
COc1ccccc1-c1nc(C)c(C(=O)N/N=C/c2ccc3c(ccn3C)c2)s1 [Example 23-92] showed a minimal effective concentration of 0.025 µM.
Work on COCCn1cnc2cc(COC(=O)Nc3cc(-c4ccc(Cl)cc4OC)nn3C)ccc21 [Example 9-273] yielded a minimal effective concentration of 10 µM.
Work on CCn1nnc2cc(COC(=O)Nc3sc(-c4ccccc4OC)nc3C)ccc21 [Example 9-22] yielded a minimal effective concentration of 0.025 µM.
In the case of Cc1nc(-c2ccc(F)cc2Cl)sc1NC(=O)OCc1ccc2c(c1)ncn2C [Example 9-47], the minimal effective concentration is reported as 0.025 µM.
For CCn1cnc2cc(NC(=O)OCc3cc(-c4ccc(Cl)cc4OC)ns3)ccc21 [Example 47-11], the minimal effective concentration was 0.1 µM.
For COc1cc(F)ccc1-c1cc(COC(=O)Nc2ccc3c(c2)ncn3C)nn1C [Example 13-135], the minimal effective concentration was 0.1 µM.
CCn1ncc2cc(COC(=O)Nc3cc(-c4ccc(Cl)cc4OC)ns3)ccc21 [Example 45-4] showed a minimal effective concentration of 10 µM.
Cc1cc(Cl)ccc1-c1nc(C)c(COC(=O)Nc2ccc3c(c2)nc2n3CCOC2)s1 [Example 13-26] gave a minimal effective concentration of 0.00625 µM.
COc1ccccc1-c1nc(C)c(NC(=O)OCc2ccc3c(cnn3C)c2)s1 [Example 9-126] was tested, and the minimal effective concentration was 0.1 µM.
Work on Cc1ccc(-c2cc(COC(=O)Nc3ccc4c(c3)nc3n4CCC3)n(C)n2)c(C)c1 [Example 13-110] yielded a minimal effective concentration of 0.00625 µM.
Cc1ccccc1-c1nc(C)c(COC(=O)Nc2ccc3c(c2)ncn3C)s1 [Example 13-1, (1-Methyl-1H-benzimidazol-5-yl)carbamic acid 4-methyl-2-(2-methylphenyl)thiazol-5-ylmethyl ester] gave a minimal effective concentration of 0.1 µM.
Compound CCCOc1ccccc1-c1nc(C)c(C(=O)N/N=C/c2ccc(OC)cc2)s1 [Example 23-149] has a minimal effective concentration of 0.1 µM.
Cc1cc(F)ccc1-c1nc(C)c(COC(=O)Nc2ccc3nn(C)cc3c2)s1 [Example 13-49] showed a minimal effective concentration of 0.1 µM.
With CCn1cnc2cc(COC(=O)Nc3cc(-c4ccccc4C(F)(F)F)nn3C)ccc21 [Example 9-212] the minimal effective concentration was 10 µM.
In the case of CCn1nc(-c2ccc(C)cc2OC)cc1NC(=O)OCc1ccc2c(cnn2C)c1 [Example 9-284], the minimal effective concentration is reported as 0.1 µM.
